The record followed here is patent US10875837B2, “Inhibitors of the fibroblast growth factor receptor” (BLUEPRINT MEDICINES CORPORATION, priority 2013, dated 2020).

A value given as a limit tells only on which side of the number the result lay.

For this experiment, the target named is T1, wild type FGFR-4 (Homo sapiens, UniProt P22455).
T1 construct: purchased Carna Biosciences, Inc
T1 sequence (P22455 22-802): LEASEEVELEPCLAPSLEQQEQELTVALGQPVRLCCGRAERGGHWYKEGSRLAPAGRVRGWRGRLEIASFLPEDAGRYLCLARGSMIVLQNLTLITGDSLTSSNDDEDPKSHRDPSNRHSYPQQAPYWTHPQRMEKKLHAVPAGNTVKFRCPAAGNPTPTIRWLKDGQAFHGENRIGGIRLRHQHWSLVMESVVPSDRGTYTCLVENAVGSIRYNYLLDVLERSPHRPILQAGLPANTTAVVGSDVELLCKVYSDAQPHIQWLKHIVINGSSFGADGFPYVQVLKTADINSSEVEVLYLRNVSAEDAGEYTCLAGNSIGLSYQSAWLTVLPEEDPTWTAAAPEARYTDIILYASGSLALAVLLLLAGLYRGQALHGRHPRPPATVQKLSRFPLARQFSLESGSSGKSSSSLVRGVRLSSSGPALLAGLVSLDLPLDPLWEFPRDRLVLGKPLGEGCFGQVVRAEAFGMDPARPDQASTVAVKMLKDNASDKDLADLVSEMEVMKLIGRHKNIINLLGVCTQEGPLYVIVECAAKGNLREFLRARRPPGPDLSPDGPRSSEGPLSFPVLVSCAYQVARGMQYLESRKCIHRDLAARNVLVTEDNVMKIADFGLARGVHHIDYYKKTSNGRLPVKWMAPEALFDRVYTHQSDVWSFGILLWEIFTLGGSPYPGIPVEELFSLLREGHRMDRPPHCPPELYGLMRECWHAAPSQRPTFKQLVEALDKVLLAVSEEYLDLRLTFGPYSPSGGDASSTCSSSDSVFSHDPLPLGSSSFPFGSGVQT
Kind of experiment: FGFR-4 wild type assay at Km (Caliper electrophoretic mobility shift). In kind it is biochemical. The following applies: wild type FGFR-4, 400 uM ATP, 25 C, 90 minutes; read-out: INH-FGFR4. The procedure: Biochemical Activity Assessment In order to assess the activity of chemical compounds against the relevant kinase of interest, the Caliper LifeSciences electrophoretic mobility shift technology platform is utilized. Fluorescently labeled substrate peptide is incubated in the presence dosed levels of compounds, a set concentration of kinase and of ATP, so that a reflective proportion of the peptide is phosphorylated. At the end of the reaction, the mix of phosphorylated (product) and non-phosphorylated (substrate) peptides are passed through the microfluidic system of the Caliper LabChip® EZ Reader II, under an applied potential difference. The presence of the phosphate group on the product peptide provides a difference in mass and charge between the product peptide and the substrate peptide, resulting in a separation of the substrate and product pools in the sample. As the pools pass the LEDS within the instrument, these pools are detected and resolved as separate peaks. The ratio between these peaks therefore reflects the activity of the chemical matter at that concentration in that well, under those conditions.
FGFR-4 wild type assay at Km: In each well of a 384-well plate, 0.5 ng/ul of wild type FGFR-4 (Carna Biosciences, Inc.) was incubated in a total of 12.5 ul of buffer (100 mM HEPES pH 7.5, 0.015% Brij 35, 10 mM MgCl2, 1 mM DTT) with 1 uM CSKtide (5-FAM-KKKKEEIYFFFG-NH2) and 400 uM ATP at 25 C for 90 minutes in the presence or absence of a dosed concentration series of compound (1% DMSO final concentration). The reaction was stopped by the addition of 70 ul of Stop buffer (100 mM HEPES pH 7.5, 0.015% Brij 35, 35 mM EDTA and 0.2% of Coating Reagent 3 (Caliper Lifesciences)). The plate was then read on a Caliper LabChip® EZ Reader II (protocol settings: −1.9 psi, upstream voltage −700, downstream voltage −3000, post sample sip 35 s).
As for `C=CC(=O)N[C@H]1CC[C@H](C(N)=O)C[C@H]1Nc1ncc2cc(-c3c(Cl)c(OC)cc(OC)c3Cl)ccc2n1` (racemic) [Compound 72], the IC50 is 100 to 1000 nM.
On to `C=CC(=O)N[C@H]1C[C@H](C(=O)N(C)C)CC[C@H]1Nc1ncc2cc(-c3c(Cl)c(OC)cc(OC)c3Cl)ccc2n1` (racemic) [Compound 87], for which the IC50 lay within 100 to 1000 nM.
For the molecule `C#CC(=O)N[C@H]1CCC[C@H]1Nc1ncc2cc(-c3cccnc3)ccc2n1` [Compound 1], the IC50 was more than 1000 nM.
Take `C#CC(=O)N[C@H]1CCC[C@H]1Nc1ncc2cc(-c3c(F)ccc(OC)c3F)ccc2n1` [Compound 2, N-((1S,2R)-2-((6-(2,6-difluoro-3-methoxyphenyl)quinazolin-2-yl)amino)cyclopentyl)propiolamide]: the IC50 is 10 to 100 nM.
Consider `C#CC(=O)N[C@H]1CCC[C@H]1Nc1ncc2cc(-c3cc(C(N)=O)ccc3Cl)ccc2n1` [Compound 3], for which the IC50 is 100 to 1000 nM.
As for `C#CC(=O)N[C@H]1CCC[C@H]1Nc1ncc2cc(-c3c(Cl)ccc(OC)c3F)ccc2n1` [Compound 4], the figure is 10 to 100 nM; as for `C#CC(=O)N[C@H]1CCC[C@H]1Nc1ncc2cc(-c3c(Cl)ccc(OC)c3Cl)ccc2n1` [Compound 5], 10 to 100 nM; as for `C#CC(=O)N[C@H]1CCC[C@H]1Nc1ncc2cc(-c3c(F)ccc(OCC)c3Cl)ccc2n1` [Compound 6, N-((1S,2R)-2-((6-(2-chloro-3-ethoxy-6-fluorophenyl)quinazolin-2-yl)amino)cyclopentyl)propiolamide], 100 to 1000 nM.
Consider `C#CC(=O)N[C@H]1CCC[C@H]1Nc1ncc2cc(-c3cc(C(=O)NC4CC4)ccc3C)ccc2n1` [Compound 7], for which the IC50 is 10 to 100 nM.
The value for `C=CC(=O)N[C@H]1COCC1Nc1ncc2cc(-c3cc(OC)cc(OC)c3Cl)ccc2n1` (some centres unmarked) [Compound 8] was 10 to 100 nM; that for `C=CC(=O)N[C@H]1CCC[C@H]1Nc1ncc2cc(-c3cc(C(=O)NC4CC4)ccc3C)ccc2n1` [Compound 9] was 100 to 1000 nM; that for `C#CC(=O)N[C@H]1CCC[C@H]1Nc1ncc2cc(-c3cc(OC)cc(C(=O)NCC)c3)ccc2n1` [Compound 10] was more than 1000 nM.
As to `C#CC(=O)N[C@H]1CCC[C@H]1Nc1ncc2cc(-c3cc(C(=O)NCC)ccc3Cl)ccc2n1` [Compound 11], the IC50 lay in the range of 10 to 100 nM.
Turning to `C#CC(=O)N[C@H]1CCC[C@H]1Nc1ncc2cc(-c3cc(C(=O)NOC)ccc3Cl)ccc2n1` [Compound 12], the IC50 is less than 10 nM.
As for `C#CC(=O)NC1CCC1Nc1ncc2cc(-c3c(Cl)c(OC)cc(OC)c3Cl)ccc2n1` (centres unmarked) [Compound 14], the figure is 10 to 100 nM.
As for `C=CC(=O)NC1CCC1Nc1ncc2cc(-c3c(Cl)c(OC)cc(OC)c3Cl)ccc2n1` (centres unmarked) [Compound 15], the figure is 100 to 1000 nM.
As for `C#CC(=O)N[C@H]1CCC[C@H]1Nc1ncc2cc(-c3cc(C(=O)NC4CC4)ccc3Cl)ccc2n1` [Compound 16], the figure is 10 to 100 nM.
Regarding `CCC(=O)N[C@H]1CCC[C@H]1Nc1ncc2cc(-c3cc(C(=O)NC4CC4)ccc3Cl)ccc2n1` [Compound 17], the IC50 is more than 1000 nM.
As for `C#CC(=O)N[C@H]1CCC[C@H]1Nc1ncc2cc(-c3cc(S(=O)(=O)N(C)C)ccc3C)ccc2n1` [Compound 18], the figure is more than 1000 nM; as for `C#CC(=O)N[C@H]1CCC[C@H]1Nc1ncc2cc(-c3cc(C(=O)NOC)c(F)cc3Cl)ccc2n1` [Compound 19], 10 to 100 nM; as for `C#CC(=O)N[C@H]1CCC[C@H]1Nc1ncc2cc(-c3c(Cl)c(OC)cc(OC)c3Cl)ccc2n1` [Compound 20], less than 10 nM.
As for `C=CC(=O)N[C@@H]1CCC[C@H]1Nc1ncc2cc(-c3c(Cl)c(OC)cc(OC)c3Cl)ccc2n1` [Compound 21], the figure is more than 1000 nM; as for `C=CC(=O)N[C@H]1CCC[C@@H]1Nc1ncc2cc(-c3c(Cl)c(OC)cc(OC)c3Cl)ccc2n1` [Compound 22], 100 to 1000 nM.
As for `C=CC(=O)N[C@@H]1CCC[C@@H]1Nc1ncc2cc(-c3c(Cl)c(OC)cc(OC)c3Cl)ccc2n1` [Compound 23], the figure is 100 to 1000 nM; as for `C=CC(=O)NC1CNCC1Nc1ncc2cc(-c3c(Cl)c(OC)cc(OC)c3Cl)ccc2n1` (centres unmarked) [Compound 25], 10 to 100 nM.
Take `C#CC(=O)N[C@H]1CCC[C@H]1Nc1ncc2cc(-c3cc(C(=O)NC4CC4)c(F)cc3Cl)ccc2n1` [Compound 30]: the IC50 was 10 to 100 nM.
Turning to `C#CC(=O)N[C@H]1CCCC[C@H]1Nc1ncc2cc(-c3c(Cl)c(OC)cc(OC)c3Cl)ccc2n1` [Compound 31], the IC50 is less than 10 nM.
As for `C=CC(=O)N[C@H]1CC(=O)C[C@H]1Nc1ncc2cc(-c3c(Cl)c(OC)cc(OC)c3Cl)ccc2n1` [Compound 33], the figure is 10 to 100 nM; as for `C=CC(=O)N[C@@H]1CCCC[C@@H]1Nc1ncc2cc(-c3c(Cl)c(OC)cc(OC)c3Cl)ccc2n1` [Compound 35], more than 1000 nM.
As for `C=CC(=O)N[C@H]1CCCC[C@@H]1Nc1ncc2cc(-c3c(Cl)c(OC)cc(OC)c3Cl)ccc2n1` [Compound 36, N-((1S,2S)-2-((6-(2,6-dichloro-3,5-dimethoxyphenyl)quinazolin-2-yl)amino)cyclohexyl)acrylamide], the figure is more than 1000 nM.
On to `C=CC(=O)N[C@@H]1CCCC[C@H]1Nc1ncc2cc(-c3c(Cl)c(OC)cc(OC)c3Cl)ccc2n1` [Compound 37], for which the IC50 is more than 1000 nM.
The value for `C=CC(=O)N[C@H]1CCNC[C@H]1Nc1ncc2cc(-c3c(Cl)c(OC)cc(OC)c3Cl)ccc2n1` [Compound 38] was 100 to 1000 nM; that for `C=CC(=O)N[C@@H]1CCNC[C@@H]1Nc1ncc2cc(-c3c(Cl)c(OC)cc(OC)c3Cl)ccc2n1` [Compound 39] was more than 1000 nM.
As for `C=CC(=O)N[C@H]1C[C@@H](O)C[C@H]1Nc1ncc2cc(-c3c(Cl)c(OC)cc(OC)c3Cl)ccc2n1` [Compound 42], the figure is 10 to 100 nM.
As for `C=CC(=O)N[C@@H]1CCOC[C@@H]1Nc1ncc2cc(-c3c(Cl)c(OC)cc(OC)c3Cl)ccc2n1` [Compound 43], the IC50 lay within 100 to 1000 nM.
The value for `CC#CC(=O)N[C@H]1CCCC[C@H]1Nc1ncc2cc(-c3c(Cl)c(OC)cc(OC)c3Cl)ccc2n1` [Compound 47] was more than 1000 nM; that for `C#CC(=O)N[C@H]1CCC[C@H]1Nc1ncc2cc(-c3c(Cl)c(OC)cc(OC)c3Cl)cc(OC)c2n1` [Compound 48] was less than 10 nM; that for `C#CC(=O)N[C@H]1CCC[C@H]1Nc1cc2c(cn1)cc(-c1c(Cl)c(OC)cc(OC)c1Cl)c(=O)n2C` [Compound 49] was less than 10 nM.
On to `C=CC(=O)N[C@H]1CCOC[C@H]1Nc1ncc2c(F)c(-c3c(Cl)c(OC)cc(OC)c3Cl)ccc2n1` [Compound 50], for which the IC50 lay within 10 to 100 nM.
Consider `C=CC(=O)N[C@H]1CCC[C@H]1Nc1ncc2cc(-c3c(Cl)c(OC)cc(OC)c3Cl)cc(Cl)c2n1` [Compound 53], for which the IC50 lay in the range of 10 to 100 nM.
On to `C=CC(=O)N[C@@H]1CN(C(C)=O)C[C@@H]1Nc1ncc2cc(-c3c(Cl)c(OC)cc(OC)c3Cl)ccc2n1` [Compound 57], for which the IC50 fell in the range of 100 to 1000 nM.
Consider `C=CC(=O)N[C@@H]1CC(C)(C)OC[C@@H]1Nc1ncc2cc(-c3c(Cl)c(OC)cc(OC)c3Cl)ccc2n1` [Compound 59], for which the IC50 is 100 to 1000 nM.
As for `C=CC(=O)N[C@H]1CC(C)(C)OC[C@H]1Nc1ncc2cc(-c3c(Cl)c(OC)cc(OC)c3Cl)ccc2n1` [Compound 60], the figure is more than 1000 nM; as for `C#CC(=O)N[C@H]1Cc2ccccc2[C@H]1Nc1ncc2cc(-c3c(Cl)c(OC)cc(OC)c3Cl)ccc2n1` [Compound 65], 100 to 1000 nM; as for `C=CS(=O)(=O)N[C@H]1CCCC[C@H]1Nc1ncc2cc(-c3c(Cl)c(OC)cc(OC)c3Cl)ccc2n1` [Compound 66], 10 to 100 nM.
As for `C=CC(=O)N[C@H]1CCOC[C@H]1Nc1ncc2cc(-c3c(Cl)c(OC)cc(OC)c3Cl)cc(Cl)c2n1` [Compound 67], the figure is less than 10 nM.
Turning to `C#CC(=O)N[C@H]1CCCC[C@H]1Nc1cc2c(cn1)cc(-c1c(Cl)c(OC)cc(OC)c1Cl)c(=O)n2CC` [Compound 68], the IC50 is less than 10 nM.
`C=CC(=O)N[C@@H]1CCN(C(C)=O)C[C@@H]1Nc1ncc2cc(-c3c(Cl)c(OC)cc(OC)c3Cl)ccc2n1` [Compound 69]: the IC50 is 100 to 1000 nM.
As for `C=CC(=O)N[C@H]1CCN(C(C)=O)C[C@H]1Nc1ncc2cc(-c3c(Cl)c(OC)cc(OC)c3Cl)ccc2n1` [Compound 70], the IC50 lay in the range of 100 to 1000 nM.
As for `C=CC(=O)NC1CN(C(C)=O)CCC1Nc1ncc2cc(-c3c(Cl)c(OC)cc(OC)c3Cl)ccc2n1` (centres unmarked) [Compound 71], the IC50 fell in the range of 10 to 100 nM.
As for `C=CC(=O)N[C@H]1C[C@@H](C(=O)OC)C[C@H]1Nc1ncc2cc(-c3c(Cl)c(OC)cc(OC)c3Cl)ccc2n1` [Compound 73], the figure is 10 to 100 nM.
Regarding `C=CC(=O)N[C@H]1CCCC[C@H]1Nc1ncc2nc(-c3c(Cl)c(OC)cc(OC)c3Cl)c(=O)n(CC)c2n1` [Compound 78], the IC50 was in the range of 100 to 1000 nM.
With `C=CC(=O)NC1CCS(=O)(=O)CC1Nc1ncc2cc(-c3c(Cl)c(OC)cc(OC)c3Cl)ccc2n1` (centres unmarked) [Compound 79], the IC50 was in the range of 10 to 100 nM.
